Results as given in article PMC8583417, “Evaluation of the Antimicrobial Efficacy of N-Acetyl-L-Cysteine, Rhamnolipids, and Usnic Acid—Novel Approaches to Fight Food-Borne Pathogens” (International Journal of Molecular Sciences, 2021).
≈ marks a conversion by molar mass, not a printed value.

Experiments:
S. Infantis S13 [1] = assay: MIC for biofilm formation (crystal violet staining); assay type: cell-based, Salmonella enterica Infantis; conditions: for MICBF80: ≥80% prevention, 24 h
Method: (§1) Ten concentrations of NAC, RLs, and UA were tested to determine the minimum inhibitory concentration for planktonic growth, and subsequently, the six highest concentrations were applied on preformed biofilms to evaluate the biofilm eradication ability of the compounds. MIC was defined as the lowest substance concentration able to inhibit at least 80% of microbial growth (MICPC80 for planktonic cells, MICBC80 for further growth of biofilm cells), inhibit 80% of metabolic activity (MICBM80 for biofilm metabolic activity, MICMPB80 for metabolic activity of preformed biofilm), prevent biofilm formation by at least 80% (MICBF80 for biofilm formation), or reduce a preformed biofilm by at least 80% (MICBR80 for biofilm reduction). The results of MICs are summarized in Table 1 (planktonic cells) and Table 2 (biofilm-associated cells).
(§2) The determination of MICs was performed according to Chlumsky et al.. Briefly, 96-well flat-bottomed microtiter plates were inoculated with 75 µL (for biofilm formation) or 100 µL (for preformed biofilm) of bacterial suspension (A625nm 0.08 to 0.1) in technical triplicates and were then carefully mixed with the dilution series of the test substances (24 h cultivation at 25 °C for S. Infantis, 37 °C for other strains) or were directly cultivated to preform biofilms (18 h). For a positive control of bacterial growth, the inoculum was mixed with a pure sterile medium. Furthermore, the sterile medium was included in the plate as a marker of potential microbial contamination. To evaluate planktonic cells growth (MICPC80) and further growth of biofilm cells (MICBC80), the optical density of the content of the microtiter plates was measured spectrophotometrically at 625 nm before and after 24 h (for biofilm formation) of cultivation or before and after additional 20 h incubation with the tested compound (for preformed biofilm). The difference of A625nm was considered as a measure of the ability of cells to grow in the presence of the tested substances. To evaluate the inhibition of biofilm formation (MICBF80) and reduction in preformed biofilms (MICBR80), biomass was quantified using crystal violet staining, and its metabolic activity (MICBM80 and MICMPB80) was estimated by using the MTT (thiazyl tetrazolium bromide, Sigma-Aldrich, USA) reduction assay, both measured spectrophotometrically at 595 nm.
(§3) All inhibitions were calculated using the formula of Chlumsky et al. below (Equation (1)):(1) A625(595)nm inhibition (%)=A625(595)nm (control) – A625(595)nm(natural substance)/A625(595)nm (control)× 100 where A625(595)nm (control) is the absorbance of bacterial suspension/biofilm itself, and A625(595)nm(natural substance) is the absorbance of the bacterial suspension/biofilm with the added natural substance (NAC, RLs, and UA).
(§4) When the minimum inhibitory concentration could not be determined, the MIC was established as >the highest tested concentration for NAC, RLs, and UA.

S. Infantis S59 [2] = assay: as above; assay type: cell-based, Salmonella enterica Infantis; conditions: for MICBF80: ≥80% prevention, 24 h
Method: as §1, §2, §3, §4

S. Infantis S13 [3] = assay: MIC for reduction of preformed biofilm (crystal violet staining); assay type: cell-based, Salmonella enterica Infantis; conditions: for MICBR80: ≥80% reduction of preformed biofilm (18 h), 20 h with substance
Method: as §1, §2, §3, §4

S. Infantis S59 [4] = assay: as above; assay type: cell-based, Salmonella enterica Infantis; conditions: for MICBR80: ≥80% reduction of preformed biofilm (18 h), 20 h with substance
Method: as §1, §2, §3, §4

[5] = system: tested food-borne pathogens; assay: MIC for bacterial growth, summary over all tested strains; assay type: cell-based; conditions: this study
Method: as §2, with “The difference of A625nm was considered as a measure of the ability of cells to grow in the presence of the tested substances.” left out, “nm. […]” for “nm.”

S. Infantis S13 [6] = assay: MIC for metabolic activity of preformed biofilm (MTT reduction assay); assay type: cell-based, Salmonella enterica Infantis; conditions: for MICMPB80: ≥80% inhibition, 20 h with substance
Method: as §1, §2, §3, §4

S. Infantis S59 [7] = assay: as above; assay type: cell-based, Salmonella enterica Infantis; conditions: for MICMPB80: ≥80% inhibition, 20 h with substance
Method: as §1, §2, §3, §4

S. aureus 1241 = assay: MIC for reduction of preformed biofilm (crystal violet staining); assay type: cell-based, Staphylococcus aureus; conditions: for maximal achieved inhibition (MICBR80 not reached), biofilm reduction: preformed biofilm, within tested concentrations; for MICBR80: ≥80% reduction of preformed biofilm (18 h), 20 h with substance
Method: as §1, §2, §3, §4

S. aureus 816 [8] = assay: as above; assay type: cell-based, Staphylococcus aureus; conditions: for MICBR80: ≥80% reduction of preformed biofilm (18 h), 20 h with substance
Method: as §1, §2, §3, §4

[9] = system: Haemophilus influenza, Pseudomonas aeruginosa, and Streptococcus pneumoniae; design: method as in PMID 29234086, PMID 31022884, PMID 27492531; conditions: clinical pathogens; cited from earlier work
[10] = system: S. Enteritidis ATCC 13076; assay: MIC for planktonic cell growth (A625nm); assay type: cell-based, Salmonella enterica Enteritidis; conditions: for MICPC80: ≥80% inhibition, 24 h
Method: as §1
(§5) The determination of MICs was performed according to Chlumsky et al.. […] To evaluate planktonic cells growth (MICPC80) and further growth of biofilm cells (MICBC80), the optical density of the content of the microtiter plates was measured spectrophotometrically at 625 nm before and after 24 h (for biofilm formation) of cultivation or before and after additional 20 h incubation with the tested compound (for preformed biofilm). […] To evaluate the inhibition of biofilm formation (MICBF80) and reduction in preformed biofilms (MICBR80), biomass was quantified using crystal violet staining, and its metabolic activity (MICBM80 and MICMPB80) was estimated by using the MTT (thiazyl tetrazolium bromide, Sigma-Aldrich, USA) reduction assay, both measured spectrophotometrically at 595 nm.
as §3, with “UA). […]” for “UA).”

L. monocytogenes 164 = assay: MIC for metabolic activity of preformed biofilm (MTT reduction assay); assay type: cell-based, Listeria monocytogenes; conditions: ≥80% inhibition, 20 h with substance
Method: as §1
as §2, with “Furthermore, the sterile medium was included in the plate as a marker of potential microbial contamination.” left out, “The difference of A625nm was considered as a measure of the ability of cells to grow in the presence of the tested substances.” left out
as §3, §4

L. monocytogenes 149 = assay: as above; assay type: cell-based, Listeria monocytogenes; conditions: ≥80% inhibition, 20 h with substance
Method: as §1
as §2, with “Furthermore, the sterile medium was included in the plate as a marker of potential microbial contamination.” left out, “The difference of A625nm was considered as a measure of the ability of cells to grow in the presence of the tested substances.” left out
as §3, §4

[11] = system: Haemophilus influenza, Pseudomonas aeruginosa, and Streptococcus pneumoniae; design: method as in PMID 29234086, PMID 31022884, PMID 27492531; conditions: clinical pathogens; cited from earlier work; remark: listed apart in the source
E. coli 693/17 = assay: MIC for reduction of preformed biofilm (crystal violet staining); assay type: cell-based, Escherichia coli; conditions: for MICBR80: ≥80% reduction of preformed biofilm (18 h), 20 h with substance
Method: as §1, §2, §3, §4

E. coli 683/17 = assay: as above; assay type: cell-based, Escherichia coli; conditions: for maximal achieved inhibition (MICBR80 not reached), biofilm reduction: preformed biofilm, within tested concentrations; for MICBR80: ≥80% reduction of preformed biofilm (18 h), 20 h with substance
Method: as §1, §2, §3, §4

S. aureus 816 [12] = assay: MIC for further growth of biofilm cells, preformed biofilm (A625nm); assay type: cell-based, Staphylococcus aureus; conditions: ≥80% inhibition, 18 h preformed biofilm, 20 h with substance
Method: as §1, §5
as §3, with “UA). […]” for “UA).”

[13] = system: preformed biofilms of Gram-negative bacteria; assay: Inhibition of further growth of biofilm cells, summary over strains; assay type: cell-based
Method: as §2, with “The difference of A625nm was considered as a measure of the ability of cells to grow in the presence of the tested substances.” left out, “nm. […]” for “nm.”

S. aureus 1945^GFPuvr = system: S. aureus 1945^GFPuvr; design: method as in PMID 30151647; conditions: cited from earlier work
Gram-positive bacteria = assay: Reduction of preformed biofilm, summary over strains; assay type: cell-based; conditions: Gram-positive strains other than L. monocytogenes 164
Method: as §2, with “The difference of A625nm was considered as a measure of the ability of cells to grow in the presence of the tested substances.” left out, “nm. […]” for “nm.”

Gram-negative bacteria [14] = assay: as above; assay type: cell-based
Method: as §2, with “The difference of A625nm was considered as a measure of the ability of cells to grow in the presence of the tested substances.” left out, “nm. […]” for “nm.”

Gram-negative bacteria [15] = assay: Inhibition of biofilm formation, summary over strains; assay type: cell-based; conditions: maximal tested concentration 31.3 µg/mL
Method: as §2, with “The difference of A625nm was considered as a measure of the ability of cells to grow in the presence of the tested substances.” left out, “nm. […]” for “nm.”

Gram-negative bacteria [16] = assay: Inhibition of biofilm metabolic activity, summary over strains; assay type: cell-based; conditions: maximal tested concentration 31.3 µg/mL
Method: as §2, with “The difference of A625nm was considered as a measure of the ability of cells to grow in the presence of the tested substances.” left out, “nm. […]” for “nm.”

[17] = system: preformed biofilms of Gram-negative bacteria; assay: Inhibition of metabolic activity of preformed biofilm, summary over strains; assay type: cell-based
Method: as §2, with “The difference of A625nm was considered as a measure of the ability of cells to grow in the presence of the tested substances.” left out, “nm. […]” for “nm.”

Gram-negative bacteria [18] = assay: Inhibition of planktonic growth, summary over strains; assay type: cell-based; conditions: at maximal tested concentration (RLs 1000 µg/mL, UA 31.3 µg/mL)
Method: as §2, with “The difference of A625nm was considered as a measure of the ability of cells to grow in the presence of the tested substances.” left out, “nm. […]” for “nm.”

[19] = preformed biofilm, within tested concentrations

Compound	MICBF80 (S. Infantis S13 [1])	MICBF80 (S. Infantis S59 [2])	MICBR80 (S. Infantis S13 [3])	MICBR80 (S. Infantis S59 [4])	MICMPB80 (S. Infantis S13 [6])	MICMPB80 (S. Infantis S59 [7])	maximal achieved inhibition (MICBR80 not reached), biofilm reduction (S. aureus 1241)	MICBR80 (S. aureus 1241)	MICBR80 (S. aureus 816 [8])	MICPC80 [10]	MICMPB80 (L. monocytogenes 164)	MICMPB80 (L. monocytogenes 149)	MICBR80 (E. coli 693/17)	maximal achieved inhibition (MICBR80 not reached), biofilm reduction (E. coli 683/17)	MICBR80 (E. coli 683/17)	other results
CC(=O)N[C@@H](CS)C(=O)O [NAC, N-Acetyl-L-cysteine]	12,500 µg/mL	6250 µg/mL	12,500 µg/mL	100,000 µg/mL	12,500 µg/mL	12,500 µg/mL	31%	> 100,000 µg/mL	12,500 µg/mL	12,500 µg/mL	6250 µg/mL	6250 µg/mL	100,000 µg/mL	68%	> 100,000 µg/mL	MIC for bacterial growth, range over strains [5]: 3130–12,500 µg/mL; MIC against bacterial growth [9]: 500 to 2500 µg/mL; MIC needed for biofilm reduction [11]: 2500–10,000 µg/mL; MICBC80 (S. aureus 816 [12]): 3130 µg/mL
CC(=O)c1c(O)c(C)c(O)c2c1OC1=CC(=O)C(C(C)=O)C(=O)C12C (single isomer, unassigned; (+)) [UA, (+)-usnic acid]	> 31.3 µg/mL	> 31.3 µg/mL	> 31.3 µg/mL	> 31.3 µg/mL	> 31.3 µg/mL	> 31.3 µg/mL	72%	> 31.3 µg/mL	> 31.3 µg/mL	> 31.3 µg/mL	1.96 µg/mL	3.91 µg/mL	> 31.3 µg/mL	0%	> 31.3 µg/mL	maximum observed inhibition of further growth of biofilm cells [13]: up to 61%; minimal inhibition concentration, bacterial growth (S. aureus 1945^GFPuvr): 32 µg/mL (≈ 92.9 µM); maximal achieved inhibition (MICBF80 not reached) (S. Infantis S13 [1]; within tested concentrations): 45%; maximal achieved inhibition (MICBF80 not reached) (S. Infantis S59 [2]; within tested concentrations): 34%; maximal achieved inhibition (MICBR80 not reached), biofilm reduction (S. Infantis S13 [3]; [19]): 30%; maximal achieved inhibition (MICBR80 not reached), biofilm reduction (S. Infantis S59 [4]; [19]): 21%; maximum observed reduction of preformed biofilm, range over strains (Gram-positive bacteria): 35–72%; maximum observed reduction of preformed biofilm (Gram-negative bacteria [14]): up to 30%; maximal achieved inhibition (MICMPB80 not reached) (S. Infantis S13 [6]; within tested concentrations): 17%; maximal achieved inhibition (MICMPB80 not reached) (S. Infantis S59 [7]; within tested concentrations): 26%; maximum inhibition (MICBF80), range over strains (Gram-negative bacteria [15]): 10–47%; maximal achieved inhibition (MICBR80 not reached), biofilm reduction (S. aureus 816 [8]; [19]): 35%; maximal achieved inhibition (MICPC80 not reached) ([10]; within tested concentrations): 42%; maximal achieved inhibition (MICBR80 not reached), biofilm reduction (E. coli 693/17; [19]): 0%; maximum inhibition (MICBM80), range over strains (Gram-negative bacteria [16]): 16–47%; maximum observed inhibition of metabolic activity of preformed biofilm [17]: up to 53%; maximum inhibition of planktonic growth (MICPC80), range over strains (Gram-negative bacteria [18]): 20–42%
